For three compounds, viability results are on record in US9981968B2, “Substituted pyrrolo[2,3-d]pyrimidines for the treatment of cancer and proliferative disorders” (Northwestern University, priority 2013, dated 2018).

Common to all, as to format: cell-based
In assay [1] the test system is MDA-MB-468. In words: SRB growth assay, MDA-MB-468. The following applies: Homo sapiens, MDA-MB-468 (Breast), 48 hours, read-out: Percent viability. From the text: (§1) Tested cell lines included, Leukemia: CCRF-CEM, HL-60(TB), MOLT-4, RPMI-8226 and SR; Non-Small Cell Lung: A549/ATCC, EKVX, HOP-62, HOP-92, NCI-H226, NCI-H23, NCI-H322M, NCI-H460 and NCI-H522; Colon: COLO 205, HCC-2998, HCT-116, HCT-15. HT29, KM12 and SW-620; CNS: SF-268, SF-295, SF-539, SNB-19, SNB-75 and U251; Melanoma: LOX IMVI, MALME-3M, M14, MDA-MB-435, SK-MEL-2, SK-MEL-28, SK-MEL-5, UACC-257 and UACC-62; Ovarian: IGR-OV1, OVCAR-3, OVCAR-4, OVCAR-5, OVCAR-8. NCI/ADR-RES and SK-OV-3; Renal: 786-0, A498, ACHN, CAKI-1, RXF 393, SN12C, TK-10 and UO-31; Prostate: DU-145 and PC-3; and Breast: MCF7, MDA-MB-231/ATCC, MDA-MB-468, HS 578T, BT-549 and T-47D.
(§2) The cells were cultured in RPMI1640 media supplemented with 10% Fetal Bovine Serum (FBS), 2 mM glutamine and with 5% CO2 and 37° C. For experiment, 5% of FBS and 50 ug/mL of gentamycin were used. Test articles were 10 μM of NUCL 381-3 or 10 μM NUCL 383-3. The positive control was 10 μM of doxorubicin.
(§3) Cells were plated in 96 well plates. The cells were plated in triplicate. Cells were plated at the densities based on NCI recommendation. Time zero cells (Tz) were fixed the following day with 50% or 80% ice cold Trichloracetic acid (TCA) and washed 5× with water. At 48 hours post addition of treatments, all remaining plates were fixed in 80% ice cold Trichloracetic acid (TCA) and washed 5× with water. After drying, one hundred microliters of 0.4% Sulphorhodamine B (SRB) in 1% acetic acid was added to each plate including the Tzero plate and incubated for 10 minutes at room temperature. After 5 additional washes with 1% acetic acid, plates were allowed to dry. One hundred microliters of Trizma base was added to each well and plates were read at 515 nm.
(§4) Percent of growth was calculated by the following formulas: [Ti/C]×100, where: Tz=absorbance readings for wells at time zero without treatment; C=absorbance readings of untreated cells (without treatment); and Ti=absorbance reading of wells with treatment.
A general note: In SRB staining, fixed cells bind dye roughly in proportion to their protein.

Assay [2] concerns TK-10. The assay can be described thus: SRB growth assay, TK-10. The following applies: Homo sapiens, TK-10 (Renal), 48 hours, read-out: Percent viability.
From the text: as §1, §2, §3, §4

Assay [3] concerns HOP-62. In words: SRB growth assay, HOP-62. The following applies: Homo sapiens, HOP-62 (Non-Small Cell Lung), 48 hours, read-out: Percent viability.
From the text: as §1, §2, §3, §4

The subject of assay [4] is NCI-H522. The assay can be described thus: SRB growth assay, NCI-H522. Conditions: Homo sapiens, NCI-H522 (Non-Small Cell Lung), 48 hours, read-out: Percent viability.
From the text: as §1, §2, §3, §4

Assay [5] concerns SF-295. The assay can be described thus: SRB growth assay, SF-295. Conditions: Homo sapiens, SF-295 (CNS), 48 hours, read-out: Percent viability.
From the text: as §1, §2, §3, §4

The subject of assay [6] is MALME-3M. In words: SRB growth assay, MALME-3M. Conditions: Homo sapiens, MALME-3M (Melanoma), 48 hours, read-out: Percent viability.
From the text: as §1, §2, §3, §4

Assay [7] has as its system RXF 393. In words: SRB growth assay, RXF 393. The following applies: Homo sapiens, RXF 393 (Renal), 48 hours, read-out: Percent viability.
From the text: as §1, §2, §3, §4

The test system of assay [8] is SNB-75. The assay can be described thus: SRB growth assay, SNB-75. The following applies: Homo sapiens, SNB-75 (CNS), 48 hours, read-out: Percent viability.
From the text: as §1, §2, §3, §4

In assay [9] the test system is HCT-116. The assay can be described thus: SRB growth assay, HCT-116. Conditions: Homo sapiens, HCT-116 (Colon), 48 hours, read-out: Percent viability.
From the text: as §1, §2, §3, §4

Assay [10] deals with SF-539. In words: SRB growth assay, SF-539. The following applies: Homo sapiens, SF-539 (CNS), 48 hours, read-out: Percent viability.
From the text: as §1, §2, §3, §4

Assay [11] has as its system SF-268. In words: SRB growth assay, SF-268. The following applies: Homo sapiens, SF-268 (CNS), 48 hours, read-out: Percent viability.
From the text: as §1, §2, §3, §4

For assay [12], the system named is MOLT-4. In words: SRB growth assay, MOLT-4. Conditions: Homo sapiens, MOLT-4 (Leukemia), 48 hours, read-out: Percent viability.
From the text: as §1, §2, §3, §4

Assay [13] has as its system HT29. In words: SRB growth assay, HT29. The following applies: Homo sapiens, HT-29, HT29 (Colon), 48 hours, read-out: Percent viability.
From the text: as §1, §2, §3, §4

For assay [14], the system named is NCI-H226. The assay can be described thus: SRB growth assay, NCI-H226. The following applies: Homo sapiens, NCI-H226 (Non-Small Cell Lung), 48 hours, read-out: Percent viability.
From the text: as §1, §2, §3, §4

Assay [15] concerns T-47D. The assay can be described thus: SRB growth assay, T-47D. Conditions: Homo sapiens, T47D, T-47D (Breast), 48 hours, read-out: Percent viability.
From the text: as §1, §2, §3, §4

The subject of assay [16] is SK-OV-3. The assay can be described thus: SRB growth assay, SK-OV-3. Conditions: Homo sapiens, SK-OV-3 (Ovarian), 48 hours, read-out: Percent viability.
From the text: as §1, §2, §3, §4

The test system of assay [17] is ACHN. In words: SRB growth assay, ACHN. The following applies: Homo sapiens, ACHN (Renal), 48 hours, read-out: Percent viability.
From the text: as §1, §2, §3, §4

For assay [18], the system named is DU-145. The assay can be described thus: SRB growth assay, DU-145. The following applies: Homo sapiens, DU-145 (Prostate), 48 hours, read-out: Percent viability.
From the text: as §1, §2, §3, §4

In assay [19] the test system is MM1S. In words: SRB growth assay, MM1S. Conditions: Homo sapiens, MM1.S, MM1S (Multiple Myeloma), 48 hours, read-out: Percent viability.
For assay [20], the system named is SNB-19. In words: SRB growth assay, SNB-19. The following applies: Homo sapiens, SNB-19 (CNS), 48 hours, read-out: Percent viability.
From the text: as §1, §2, §3, §4

The subject of assay [21] is COLO 205. The assay can be described thus: SRB growth assay, COLO 205. The following applies: Homo sapiens, COLO 205 (Colon), 48 hours, read-out: Percent viability.
From the text: as §1, §2, §3, §4

Assay [22] deals with KM12. In words: SRB growth assay, KM12. Conditions: Homo sapiens, KM12 (Colon), 48 hours, read-out: Percent viability.
From the text: as §1, §2, §3, §4

For assay [23], the system named is HS 578T. In words: SRB growth assay, HS 578T. The following applies: Homo sapiens, HS 578T (Breast), 48 hours, read-out: Percent viability.
From the text: as §1, §2, §3, §4

Usually viability stands for a read-out of living cells in per cent, often relative to untreated cells. Take `COc1cccc2c1C(=O)c1c(O)c3c(c(O)c1C2=O)C[C@@](O)(C(=O)CO)C[C@@H]3O[C@H]1C[C@H](N)[C@H](O)[C@H](C)O1` [Doxorubicin, reference compound]: the viability at 10 µM in assay [1] came to 45.8%; in assay [2], 35.9%; in [3] it was 19.7%; in assay [4], 18.1%; in [5] it was 11.2%; in assay [6], 15.8%. Moreover, the viability at 10 µM in assay [7] came to 8.68%; in assay [8], 36%; in [9], 14.9%; in assay [10], 6.83%; in assay [11] it was 6.91%; in assay [12], 30.4%. Further, the viability at 10 µM was 34.9% in assay [13]; 34.2% in assay [14]; 37.5% in assay [15]; 47.8% in [16]; 40.2% in assay [17]; 72.5% in [18]. For the same compound, the viability at 10 µM in assay [19] was found to be 26.4%; in assay [20], 37.3%; in assay [21], 2.33%; in assay [22], 71.8%; in assay [23] it was 51.5%.
For the compound `FC(F)(F)c1cn(CC2CCNCC2)c2ncnc(Cl)c12` [NUCC-0000381], the viability at 10 µM in assay [1] stood at 102%; in assay [2], 88.5%; in assay [3] it was 15.7%; in assay [4], 38.7%; in assay [5], 44.4%; in assay [6], 101%. Further, the viability at 10 µM turned out to be 12% in assay [7]; 83.3% in assay [8]; 20.1% in [9]; 7.4% in assay [10]; 3.37% in assay [11]; 75.5% in [12]. The viability at 10 µM was found to be 33.3% in assay [13]; 54.9% in assay [14]; 60.8% in [15]; 56.5% in assay [16]; 23.3% in assay [17]; 29.8% in assay [18]. Further, the viability at 10 µM in assay [19] turned out to be 52.3%; in assay [20], 28.9%; in [21], 79.5%; in [22], 31%; in [23] it was 53.9%.
For the compound `CS(=O)(=O)N1CCC(Cn2cc(C(F)(F)F)c3c(Cl)ncnc32)CC1` [NUCC-0000383], the viability at 10 µM was 93.8% in assay [1]; 73.9% in assay [2]; 88.5% in [3]; 21.7% in assay [4]; 56.2% in [5]; 42.7% in assay [6]. Further, the viability at 10 µM in assay [7] turned out to be 7.81%; in [8] it was 23.3%; in assay [9], 15%; in assay [10] it was 4.93%; in [11], 1.77%; in [12], 17.9%. Also, the viability at 10 µM in assay [13] came to 30.3%; in assay [14], 29.5%; in assay [15], 63.3%; in assay [16], 74.2%; in [17], 77.8%; in assay [18], 11.2%. Further, the viability at 10 µM is 58.2% in assay [19]; 21.4% in assay [20]; 93% in [21]; 99.5% in assay [22]; 50.1% in [23].
